In patent publication US9226919B2, “Methods for dosing an orally active 1,2,4-oxadiazole” (PTC Therapeutics, Inc., priority 2006, dated 2016):
Values joined by “and” are separate entries in the source; they are usually repeats but may differ in a detail not shown here. Equal values may be shown once.

Assays:
Format in all cases: in vivo, human
dystrophin = assay: Dystrophin expression in EDB muscle biopsy by immunofluorescence, Phase 2 DMD study; settings: for In Vivo Expression Response (dystrophin): individual DMD patients, 28 days
Description: Biopsy of the EDB muscle and overlying skin from one foot is performed under local anesthesia and conscious sedation (in some cases, general anesthesia may be required) prior to treatment, and from the other foot on the last day of treatment. The biopsy procedure is performed using standardized techniques (Stedman, 2000, Human Gene Therapy 11:777-90). The entire muscle belly (whenever possible) is removed in the procedure. At the time of collection of the biopsy prior to treatment, the muscle specimen is divided into at least 3 fragments and the biopsy specimen collected on the last day of treatment is divided into at least 2 fragments. The biopsy specimen is placed on a telfa gauze sponge moistened with Ringer's saline. The biopsy specimen is viewed at low power under a stereo dissection microscope to establish fiber orientation. The muscle is then transected using a sharp scalpel in a cross sectional fashion (perpendicular to the orientation of the fibers) whenever possible and allowed to rest for 2 minutes to allow for the cessation of spasm. The sample is then frozen in liquid nitrogen cooled isopentane, transferred to a liquid nitrogen reservoir and held 1 inch above the liquid/vapor interface for 2 minutes of slow cooling and isopentane evaporation before immersion in the liquid nitrogen, and wrapped into precooled (in liquid nitrogen and stored on dry ice) foil labeled with the study number, site number, patient number, date, patient initials, and foot side (right foot or left foot).
All sample containers are clearly labeled in a fashion that identifies the subject and the collection date. Labels are fixed to the sample containers in a manner that prevents the label from becoming detached. Samples are shipped for analysis/culture/central review immediately after the procedure is performed. For detection of dystrophin, 3 commercially available antibodies that recognize the C-terminus, the N-terminus, and the rod domain of the protein are employed. For detection of the sarcoglycan and dystroglycan complex, commercially available antibodies against α-, β-, γ-, and δ-sarcoglycan, and β-dystroglycan are used when possible. Epifluorescence microscopy is used in the analysis; images are captured by CCD camera, after normalization of the fluorescence intensity against a normal muscle specimen. Images are stored digitally and preserved for future review, and final evaluation at the completion of the study. Tissues are also processed for detection of dystrophin, the sarcoglycans, and β-dystroglycan by Western blotting using the same antibodies. Microscopic images are captured and preserved for future review, and for final evaluation at the completion of the study. Remaining muscle tissue samples are preserved for confirmatory assays of mRNA and proteins involved in DMD. […]

serum CK = assay: Serum CK levels, Phase 2 DMD study; settings: majority of subjects at 4-, 8-, 10-, 20-, 40-mg/kg dose levels (p=0.03, 0.002, 0.001)
Description: Serum CK activity is assessed using a commercially available NADH-linked kinetic assay (Diagnostic Chemicals Ltd., Oxford, Conn.). Serum CK levels are measured prior to treatment, on day 1 (prior to first dose), day 7, day 14, day 21, and day 27 during the treatment period, and on day 42 and day 56 after treatment. Serum CK is increased in Duchenne muscular dystrophy and therefore is a readily measurable diagnostic marker for the disease and may serve as a potential biomarker for the pharmacological activity of the drug (Mendell et al., 1989, New Eng. J. Med. 320(24):1592-1597).
Pre-treatment of primary muscle cells from 24 of the 26 boys in the first 2 cohorts were available for in vitro myotube culture. […] These changes were statistically significant (p=0.03, p=0.002, p=0.001 for low-, middle- and high doses, respectively). The return of mean values toward baseline upon cessation of treatment provided additional support for pharmacological activity.

[1] = system: patients with nonsense-mutation-mediated cystic fibrosis; assay: Investigator-asked changes in cystic fibrosis symptoms, Phase 2 studies
Source text: In addition, although changes in patient's symptoms were not formally measured through the use of a quality-of-life questionnaire, trial investigators were requested to ask about changes in patients' cystic fibrosis symptoms. In the 15 patients included in the interim analysis, 6 reported general improvements in well being, 6 reported decrease in cough and 10 reported decreased mucus thickness and easier clearing of mucus.
The device was used to obtain the data set forth in FIG. 2 and will be used to offer substantial supplementary data regarding the clinical benefits of 3-[5-(2-fluoro-phenyl)-[1,2,4]oxadiazol-3-yl]-benzoic acid during Phase 3 testing in CF. Existing informally collected symptom data from the Phase 2 studies of 3-[5-(2-fluoro-phenyl)-[1,2,4]oxadiazol-3-yl]-benzoic acid support this concept. […] Without being limited by theory, based on the hypothesis that 3-[5-(2-fluoro-phenyl)-[1,2,4]oxadiazol-3-yl]-benzoic acid-mediated induction of CFTR function would reduce airway obstruction and inflammation, a decrease in cough frequency could serve as a symptomatic integration of these pharmacological effects and might offer a more accurate and quantitative assessment than verbal patient reporting.

[2] = of 15 CF patients in interim analysis

O=C(O)c1cccc(-c2noc(-c3ccccc3F)n2)c1 [3-[5-(2-fluoro-phenyl)-[1,2,4]oxadiazol-3-yl]-benzoic acid]
In Vivo Expression Response (dystrophin) (dystrophin; High Dose: 20, 20, 40 mg/kg): Yes (6×) and No (6×) | In Vivo Expression Response (dystrophin) (dystrophin; Low Dose: 4, 4, 8 mg/kg): Yes (4×) and No (2×) | In Vivo Expression Response (dystrophin) (dystrophin; Middle Dose: 10, 10, 20 mg/kg): Yes (10×) and No (10×) | Extensor digitorum brevis muscle membrane dystrophin on staining for the C-terminal domain (dystrophin; some patients at both dose levels, day 28 relative to baseline): Partial restoration or increase | Serum CK, end-of-treatment versus pretreatment values (serum CK): decreases in CK | Patients reporting decrease in cough [1, 2]: 6 | Patients reporting decreased mucus thickness and easier clearing of mucus [1, 2]: 10 | Patients reporting general improvements in well being [1, 2]: 6 | Patient-described on-study coughing ([1]; several patients, informally collected symptom data, Phase 2 studies): decreases in coughing
